# Experimental data taken from patent publication US10576151B2, “Ciclopirox for use in modulation of glucose homeostasis” (UNIVERSITY OF SOUTH CAROLINA, priority 2015, dated 2020).
# How the values were obtained:
# pancreatic islets = experiment: Pancreatic islet numbers by histology (H&E); format: in vivo; conditions: diabetic mice treated with CPX (FIG. 8)
# Excerpt: In Vivo Analysis of Anti-Diabetic Effect of CPX. Mice were randomly grouped. A group of C57BI/6 mice 4-5 weeks old, were fed with either a solution of 10% sucrose and a diet containing 40% kcal as a high-fat diet (HFD; Open Source Diets (New Brunswick, N.J., USA) D12451, 40% calories/fat with free access to (10%) sweetened water (sucrose) or a control chow diet containing 10% of kcal as fat (low-fat diet) and drinking water with no added sucrose (control). Mice with a glucose concentration exceeding 180 mg/dL were considered diabetic, after 2 consecutive glucose measurements. The blood glucose levels were measured using an Accu-Check blood glucose monitor (Roche, Indianapolis, Ind., USA) using blood sample collected from the tail vein. Diabetic mice were treated with either treated daily for 20 days by oral gavages with CPX (25 mg/kg) prepared in a solution (4% ethanol, 5.2% Tween 80, and 5.2% PEG 400) or vehicle control. Pancreata were preserved in 10% buffered formalin for later histological examination. Immunostaining. Pancreatic tissue samples were fixed at 10% buffered formalin, processed a defined paraffin-embedding procedure before embedding in paraffin, sectioning into 4-μm tissue sections, and stained with hematoxylin and eosin by standard methods.
# ROS = experiment: Cellular ROS production in islets (DCFDA assay); format: cell-based, mice
# Method: Measurement of Cellular ROS Production. Islets were incubated with KR buffer containing 0.01% (w/v) bovine serum albumin (BSA), 16 mM HEPES, and 2.8 mM glucose for 60 min at 37° C. ROS measurements were measured by using the DCFDA Cellular ROS Detection Assay Kit (Abcam/Mitosciences) in a 96-well dark microplate in accordance with the manufacturer's guidelines. Briefly, 30 islets were seeded into each well. On the day of the experiment, the islets were washed with 1×phosphate buffered saline and stained with 20 μM DCFH-DA in the dark for 30 min at 37° C. After incubation, DCFH-DA was removed, and the islets were washed with 1×buffer solution. Islets were seeded in a 96-well plate followed by high glucose alone or in combination with CPX glucose treatment and iron citrate alone or in combination with CPX treatment. Samples were analyzed using a Varioskan Flash micro-plate reader (Thermo-Scientific) with excitation wavelength at 485 nm and an emission wavelength at 535 nm. Tert-Butyl hydroperoxide (TBHP) was used as positive control.
# insulin = experiment: Western blot of insulin levels in islets in culture; format: cell-based, mouse
# Method: Western Blotting. The mouse islets were treated with CPX 20 μM for 24 h and lysed in RIPA buffer [50 mM Tris, pH 7.2; 150 mM NaCl; 1% sodium deoxycholate; 0.1% SDS; 1% Triton-X 100; 10 mM NaF; 1 mM Na3VO4; protease inhibitor cocktail (1:1000, Sigma, St. Louis, Mo.)] and were subjected to immunoblot analysis by standard methods. Proteins were resolved on a 10% SDS-PAGE and transferred to a nitrocellulose membrane (Bio-Rad, Hercules, Calif.). Membranes were probed overnight with GADD153 (F-168), sc-575 from Santa Cruz Biotechnology (1:50); p21 (F-5), sc-6246 from Santa Cruz Biotechnology (1:200); actin, clone C4 MAB1501 from Millipore (Billerica, Mass., USA) (1:2000); BiP antibody (cat. no. 3183) from Cell Signaling (Danvers, Mass., USA) (1:1000); GRP94 antibody (H-212), sc-11402 from Santa Cruz Biotechnology (1:500); insulin rabbit polyclonal H-86, sc-9168 from Santa Cruz Biotechnology (1:500) antibodies followed by incubation with horseradish peroxidase-conjugated (HRP) anti-mouse (1:10000), goat anti-rabbit IgG (1:10000, Santa Cruz biotechnology Inc., Santa Cruz, Calif., USA) for 1 hr. After incubation with enhanced chemiluminescence reagents (Santa Cruz biotechnology Inc.), membranes were analyzed using an Image J software for Windows.
# In order to understand better how CPX operates in β cells, it was tested to determine if it affected the efficiency by which insulin is produced following glucose stimulation. […] In view of the antidiabetic activity of CPX in vivo, the inhibition of insulin release appears contradictory. […]
# While modulation of insulin release by CPX constitutes a challenging mechanism by which CPX may affect ER stress, how CPX regulates insulin expression remains obscure. […] To test this hypothesis, islets were exposed to iron citrate, alone or combined with CPX, and the levels were recorded of chaperones BiP, GRP94 and CHOP, as well as of insulin.
smiles,measurement,setting,value
"Cc1cc(C2CCCCC2)n(O)c(=O)c1 [CPX, 6-cyclohexyl-1-hydroxy-4-methylpyridin-2(1H)-one]",islet numbers,pancreatic islets,increased significantly
same,ROS production,ROS; ROS triggered by high glucose (FIG. 12B),potent inhibitor of ROS
same,ROS production,ROS; ROS triggered by iron citrate (FIG. 12B),potent inhibitor of ROS
same,levels of intracellular insulin,insulin; islets in high glucose-containing media with CPX (FIG. 11B),moderate suppression
same,insulin production,"insulin; islets, iron citrate with concomitant CPX (FIG. 12A)",compromised the effects of iron citrate
